System: serum of BALB/c mice
Assay: Dot-ELISA, synthetic peptides with serum of immunized BALB/c mice
Format: in vivo
Parameters: key to Peptide Reactivity, Mice serum inoculated with isolated peptides 1 / Peptide Reactivity, Mice serum inoculated with isolated peptides 2 / Peptide Reactivity, Mice serum inoculated with isolated peptides 3 / Peptide Reactivity, Mice serum inoculated with pool / Peptide Reactivity, Mice serum inoculated with Saline (Negative Control) / Reaction with pool of peptides, Mouse 1 serum / Reaction with pool of peptides, Mouse 2 serum / Reaction with pool of peptides, Mouse 3 serum: — = Did not react; X = Reacted
Conditions: Dot-ELISA; peptide as antigen; mice inoculated with pool of all 8 hybrid peptides
Procedure: (§1) The immunogenicity of each peptide was checked immunizing BALB/c mice, approximately six weeks old, with […] of protein (Machado et al., 1994). The mice were divided into groups of three animals each. The groups were: P28, P41, P42, P44, P50, P51, P53, P54, Pool (mice inoculated with a pool of peptides, in the case with all 8 hybrid peptides) and negative control group. For inoculations, the peptides were emulsified in Freund's complete adjuvant (Sigma) and inoculated intramuscularly in the quadriceps. Two further immunizations, on the 14th and 28th day after inoculation, were performed using incomplete Freund's adjuvant (Sigma). Each inoculation was carried out using 10 μg/mL of each peptide. Negative control mice were inoculated with sterile saline in place of the peptides and also emulsified in adjuvant. Blood samples were collected by intracardiac puncture on the 10th day after the last immunization and the sera obtained were stored at −20° C. until evaluated by Dot-ELISA and Western-blotting assays.
(§2) Synthetic peptides were used as antigen in the Dot-ELISA technique to verify their ability to react with specific antibodies present in the serum of BALB/c mice, as well as in calf serum, all immunized. The technique was performed as described by Machado et al. (1994), with minor modifications. Briefly, small nitrocellulose discs were cut using a paper punch and each disc arranged in a flat bottom 24-well culture plate well. 4 μg/mL of each synthetic peptide alone, as well as the peptide pool, were deposited on each disc. The discs were dried at room temperature and then blocked for 12 hours at room temperature with […] TBS buffer (0.1 M Tris, 0.1 M NaCl and 0.5% Tween 20; TBS-Tween 20), plus 5% skim milk powder. Test sera were diluted 1:25 (mice and calf) in TBS-Tween 20 containing 5% skim milk powder and incubated for 120 minutes at room temperature and under constant stirring. Then the discs were subjected to two washes with TBS-Tween 20 plus 5% skim milk powder and one wash with TBS-Tween 20 (5 min interval between each wash). To each mouse serum disc was added the alkaline phosphate-coupled anti-mouse conjugate (anti-mouse IgG goat IgG, Sigma A-3562) diluted 1:30,000 in TBS-Tween 20 plus 5% of skim milk powder. To calf serum-containing discs, it was added alkaline phosphate-coupled anti-bovine conjugate (anti-cattle IgG rabbit IgG, Sigma A-0705) diluted 1:30,000 in TBS-Tween 20, plus 5% skim milk powder. After one hour incubation with the appropriate conjugates, washes were followed as in the previous step.

Sequence	Peptide Reactivity, Mice serum inoculated with pool
GASTDDAAAAAKIVAMAYGRGGGGGASSVDALTATKLVAAALGH (Synthetic hybrid peptide) [P44]	—
LAESTEGNLEEVWILGKGGGGFSESMKALIKKYVDTSKPTIYVDQGTVMKV (Synthetic hybrid peptide) [P51]	X
SECVSLQPTDSSSASGQQQEGGGGLQGHMIDAVLETAINSDIPGVLRAIVSRDV (Synthetic hybrid peptide) [P54]	X

Same assay, conditions: Dot-ELISA; peptide as antigen; serum of mouse 1 inoculated with the same isolated peptide; serum 1:25

Sequence	Peptide Reactivity, Mice serum inoculated with isolated peptides 1
GASTDDAAAAAKIVAMAYGRGGGGGASSVDALTATKLVAAALGH (Synthetic hybrid peptide) [P44]	X
LAESTEGNLEEVWILGKGGGGFSESMKALIKKYVDTSKPTIYVDQGTVMKV (Synthetic hybrid peptide) [P51]	—
SECVSLQPTDSSSASGQQQEGGGGLQGHMIDAVLETAINSDIPGVLRAIVSRDV (Synthetic hybrid peptide) [P54]	X

Same assay, conditions: Dot-ELISA; peptide as antigen; serum of mouse 2 inoculated with the same isolated peptide; serum 1:25

Sequence	Peptide Reactivity, Mice serum inoculated with isolated peptides 2
GASTDDAAAAAKIVAMAYGRGGGGGASSVDALTATKLVAAALGH (Synthetic hybrid peptide) [P44]	X
LAESTEGNLEEVWILGKGGGGFSESMKALIKKYVDTSKPTIYVDQGTVMKV (Synthetic hybrid peptide) [P51]	X
SECVSLQPTDSSSASGQQQEGGGGLQGHMIDAVLETAINSDIPGVLRAIVSRDV (Synthetic hybrid peptide) [P54]	X

Same assay, conditions: Dot-ELISA; peptide as antigen; serum of mouse 3 inoculated with the same isolated peptide; serum 1:25

Sequence	Peptide Reactivity, Mice serum inoculated with isolated peptides 3
GASTDDAAAAAKIVAMAYGRGGGGGASSVDALTATKLVAAALGH (Synthetic hybrid peptide) [P44]	X
LAESTEGNLEEVWILGKGGGGFSESMKALIKKYVDTSKPTIYVDQGTVMKV (Synthetic hybrid peptide) [P51]	X
SECVSLQPTDSSSASGQQQEGGGGLQGHMIDAVLETAINSDIPGVLRAIVSRDV (Synthetic hybrid peptide) [P54]	X

Same assay, conditions: Dot-ELISA; peptide as antigen; serum of saline-inoculated mice

Sequence	Peptide Reactivity, Mice serum inoculated with Saline (Negative Control)
GASTDDAAAAAKIVAMAYGRGGGGGASSVDALTATKLVAAALGH (Synthetic hybrid peptide) [P44]	—
LAESTEGNLEEVWILGKGGGGFSESMKALIKKYVDTSKPTIYVDQGTVMKV (Synthetic hybrid peptide) [P51]	—
SECVSLQPTDSSSASGQQQEGGGGLQGHMIDAVLETAINSDIPGVLRAIVSRDV (Synthetic hybrid peptide) [P54]	—

Same assay, conditions: Dot-ELISA; pool of peptides as antigen; serum of mouse 1 inoculated with the labelled peptide

Sequence	Reaction with pool of peptides, Mouse 1 serum
GASTDDAAAAAKIVAMAYGRGGGGGASSVDALTATKLVAAALGH (Synthetic hybrid peptide) [P44]	—
LAESTEGNLEEVWILGKGGGGFSESMKALIKKYVDTSKPTIYVDQGTVMKV (Synthetic hybrid peptide) [P51]	—
SECVSLQPTDSSSASGQQQEGGGGLQGHMIDAVLETAINSDIPGVLRAIVSRDV (Synthetic hybrid peptide) [P54]	—

Same assay, conditions: Dot-ELISA; pool of peptides as antigen; serum of mouse 2 inoculated with the labelled peptide

Sequence	Reaction with pool of peptides, Mouse 2 serum
GASTDDAAAAAKIVAMAYGRGGGGGASSVDALTATKLVAAALGH (Synthetic hybrid peptide) [P44]	—
LAESTEGNLEEVWILGKGGGGFSESMKALIKKYVDTSKPTIYVDQGTVMKV (Synthetic hybrid peptide) [P51]	X
SECVSLQPTDSSSASGQQQEGGGGLQGHMIDAVLETAINSDIPGVLRAIVSRDV (Synthetic hybrid peptide) [P54]	X

Same assay, conditions: Dot-ELISA; pool of peptides as antigen; serum of mouse 3 inoculated with the labelled peptide

Sequence	Reaction with pool of peptides, Mouse 3 serum
GASTDDAAAAAKIVAMAYGRGGGGGASSVDALTATKLVAAALGH (Synthetic hybrid peptide) [P44]	—
LAESTEGNLEEVWILGKGGGGFSESMKALIKKYVDTSKPTIYVDQGTVMKV (Synthetic hybrid peptide) [P51]	—
SECVSLQPTDSSSASGQQQEGGGGLQGHMIDAVLETAINSDIPGVLRAIVSRDV (Synthetic hybrid peptide) [P54]	—

Same assay, conditions: peptide as antigen

Sequence	Dot-ELISA reaction of sera from mice inoculated with hybrid peptides alone
GASTDDAAAAAKIVAMAYGRGGGGGASSVDALTATKLVAAALGH (Synthetic hybrid peptide) [P44]	reacted
LAESTEGNLEEVWILGKGGGGFSESMKALIKKYVDTSKPTIYVDQGTVMKV (Synthetic hybrid peptide) [P51]	reacted
SECVSLQPTDSSSASGQQQEGGGGLQGHMIDAVLETAINSDIPGVLRAIVSRDV (Synthetic hybrid peptide) [P54]	reacted

Same assay, conditions: peptide as antigen; pool of all 8 hybrid peptides

Sequence	Dot-ELISA reaction of mouse sera inoculated with the peptide pool
LAESTEGNLEEVWILGKGGGGFSESMKALIKKYVDTSKPTIYVDQGTVMKV (Synthetic hybrid peptide) [P51]	reacted
SECVSLQPTDSSSASGQQQEGGGGLQGHMIDAVLETAINSDIPGVLRAIVSRDV (Synthetic hybrid peptide) [P54]	reacted

System: calf serum
Assay: Dot-ELISA, synthetic peptides with serum of calf immunized with peptide pool
Format: in vivo
Parameters: key to Peptide Reactivity, Calf serum inoculated with pool: — = Did not react; X = Reacted
Conditions: Dot-ELISA; peptide as antigen; calf inoculated with pool SEQ ID NO: 20, 21, 23, 25, 26
Source text: (§3) The immunogenicity of the synthetic peptides was verified by immunizing a previously tested calf with negative results for Anaplasma marginale, Babesia bovis and Babesia bigemina by serology and PCR. For inoculations, a peptide pool (SEQ ID NO: 20, SEQ ID NO: 21, SEQ ID NO: 23, SEQ ID NO: 25 and SEQ ID NO: 26) was emulsified in Freund's complete adjuvant (Sigma) and, inoculated intramuscularly in the quadriceps. Two further immunizations, on the 14th and 28th day after inoculation, were performed using incomplete Freund's adjuvant (Sigma). Each inoculation was done using 100 μg/mL of each peptide. Blood samples were collected by jugular puncture on the 10th day after the last immunization and the sera obtained were stored at −20° C. until evaluated by Dot-ELISA and Western-blotting assays.
as §2

Sequence	Peptide Reactivity, Calf serum inoculated with pool
GASTDDAAAAAKIVAMAYGRGGGGGASSVDALTATKLVAAALGH (Synthetic hybrid peptide) [P44]	X
LAESTEGNLEEVWILGKGGGGFSESMKALIKKYVDTSKPTIYVDQGTVMKV (Synthetic hybrid peptide) [P51]	X
SECVSLQPTDSSSASGQQQEGGGGLQGHMIDAVLETAINSDIPGVLRAIVSRDV (Synthetic hybrid peptide) [P54]	—

Same assay, conditions: label = antigen on disc

Sequence	Dot-ELISA reaction of calf serum inoculated with the peptide pool with the antigen
GASTDDAAAAAKIVAMAYGRGGGGGASSVDALTATKLVAAALGH (Synthetic hybrid peptide) [P44]	reacted
LAESTEGNLEEVWILGKGGGGFSESMKALIKKYVDTSKPTIYVDQGTVMKV (Synthetic hybrid peptide) [P51]	reacted

System: mouse serum
Assay: Western blotting, synthetic peptides with serum of inoculated mice
Conditions: in vivo
Procedure: as §1
(§4) Samples of synthetic peptides were analyzed by Western blotting. To this end, initially, the samples were submitted to polyacrylamide gel electrophoresis under denaturing conditions, according to the technique recommended by Laemmli (1970). Based on the sample volume 2× concentrated sample buffer (250 mM Tris-HCl pH 6.8, 40% glycerol, 8% SDS, 20% β-mercaptoethanol and 0.008% bromophenol blue) was added. The samples were homogenized, incubated for 5 minutes at 100° C. and applied to the gel. The separation gel was prepared at a concentration of 12% polyacrylamide in buffer (1.875 M Tris, pH 8.8 and 1% SDS) and 5% polyacrylamide for buffer packaging gel (1.875 M Tris, pH 6.8 and 0.5% SDS). Electrophoresis was performed in Tris-Glycine Running Buffer (50 mM Tris, pH 8.6, 1.92 M Glycine and 1% SDS) at 100 V for up to 3 hours and 30 minutes at 0° C. in the Mini-Protean II system (Bio-Rad).
Synthetic peptides processed on the polyacrylamide gel (SDS-PAGE) were transferred to the nitrocellulose membrane for analysis by Wester blot (TOWBIN et al., 1979). The nitrocellulose membrane (Merck) was previously incubated in ice cold transfer buffer (0.58% Tris Base pH 8.3, 20% methanol and 0.29% glycine). For this, the membrane was placed in the “Mini Trans-Blot” (Bio-Rad) electrotransfer system containing the same buffer and the transfer was performed at 100 V for 90 minutes. The membrane was incubated in TBS-Tween (10 mM Tris-HCl pH 7.5; 150 mM NaCl, 0.05% Tween-20) plus 5% skim milk powder for 12 hours at 4° C. under low agitation, for saturation of non-specific binding sites. The membrane was then incubated with each serum from each mouse alone or incubated with calf serum for 2 hours at room temperature under slow stirring. […]

Sequence	Western blotting reaction of serum of mice inoculated with synthetic peptide
GASTDDAAAAAKIVAMAYGRGGGGGASSVDALTATKLVAAALGH (Synthetic hybrid peptide) [P44]	reacted
SECVSLQPTDSSSASGQQQEGGGGLQGHMIDAVLETAINSDIPGVLRAIVSRDV (Synthetic hybrid peptide) [P54]	reacted

System: bovine serum serologically positive / negative / vaccinated for A. marginale
Assay: Dot-ELISA, synthetic peptides with sera of cattle serologically positive, negative or vaccinated for A. marginale
Format: binding
Conditions: peptide as antigen
Procedure: as §2

Sequence	Reaction of sera from serologically positive cattle for A. marginale with synthetic peptide	Reaction of sera from vaccinated cattle for A. marginale with synthetic peptide
GASTDDAAAAAKIVAMAYGRGGGGGASSVDALTATKLVAAALGH (Synthetic hybrid peptide) [P44]	reacted	reacted
SECVSLQPTDSSSASGQQQEGGGGLQGHMIDAVLETAINSDIPGVLRAIVSRDV (Synthetic hybrid peptide) [P54]	reacted	

System: calf serum
Assay: Western blotting, synthetic peptides with calf serum
Format: in vivo
Conditions: label = antigen on blot
Source text: as §3, §4
Synthetic peptides processed on the polyacrylamide gel (SDS-PAGE) were transferred to the nitrocellulose membrane for analysis by Wester blot (TOWBIN et al., 1979). The nitrocellulose membrane (Merck) was previously incubated in ice cold transfer buffer (0.58% Tris Base pH 8.3, 20% methanol and 0.29% glycine). For this, the membrane was placed in the “Mini Trans-Blot” (Bio-Rad) electrotransfer system containing the same buffer and the transfer was performed at 100 V for 90 minutes. The membrane was incubated in TBS-Tween (10 mM Tris-HCl pH 7.5; 150 mM NaCl, 0.05% Tween-20) plus 5% skim milk powder for 12 hours at 4° C. under low agitation, for saturation of non-specific binding sites. The membrane was then incubated with each serum from each mouse alone or incubated with calf serum for 2 hours at room temperature under slow stirring. It was then subjected to three consecutive 10-minute washes with the same solution under slow agitation. […]

Sequence	Western blotting reactivity of calf serum inoculated with the peptide pool
GASTDDAAAAAKIVAMAYGRGGGGGASSVDALTATKLVAAALGH (Synthetic hybrid peptide) [P44]	showed reactivity
LAESTEGNLEEVWILGKGGGGFSESMKALIKKYVDTSKPTIYVDQGTVMKV (Synthetic hybrid peptide) [P51]	showed reactivity

Reference: patent publication US11034735B2, “Hybrid peptide, set of hybrid peptides, composition, uses of the hybrid peptide, method for inducing an immune response and kits” (priority 2017, dated 2021)
